US20240294488A1, “ISOTOPOLOGES, SALTS, CRYSTALLINE FORMS, STEREOISOMERS, OF METHYLONE AND ETHYLONE AND METHODS OF USE THEREOF” (Terran Biosciences Inc., priority 2021, published 2024)

What was measured:
[1] = Metabolic stability in human liver microsomes; format: in vitro ADME; conditions: for difference in half-life and intrinsic clearance compared with the non-deuterated methylone hydrochloride: human liver microsomes; for half-life at 1 μM / microsomal CLint at 1 μM: pooled liver microsomes, pH 7.4, human liver microsomes 0.5 mg/mL, 1 μM compound, NADPH, 0-45 min
Method: Pooled liver microsomes are purchased from a reputable commercial supplier. Microsomes are stored at […] prior to use. Microsomes (final protein concentration 0.5 mg/mL), 0.1 M phosphate buffer pH 7.4 and test compound (final substrate concentration 1 μM; final DMSO concentration 0.25%) are preincubated at 37° C. prior to the addition of NADPH (final concentration 1 mM) to initiate the reaction. A minus cofactor control incubation is included for each compound tested where 0.1 M phosphate buffer pH 7.4 is added instead of NADPH (minus NADPH). Two control compounds are included with each species. All incubations are performed singularly for each test compound. Each compound is incubated for 0, 5, 15, 30 and 45 min. The control (minus NADPH) is incubated for 45 min only. The reactions are stopped by transferring incubate into acetonitrile at the appropriate time points, in a 1:3 ratio. The termination plates are centrifuged at 3,000 rpm for 20 min at 4° C. to precipitate the protein.
From a plot of ln peak area ratio (compound peak area/internal standard peak area) against time, the gradient of the line is determined. Subsequently, half-life and intrinsic clearance are calculated using the equations below:
where V=Incubation volume (μL)/Microsomal protein (mg)
Relevant control compounds were assessed, ensuring intrinsic clearance values fall within the specified limits (if available).

[2] = cited from earlier work
C57/BL6J mice = assay: Forced swim test (FST); format: in vivo, mouse; conditions: 24 h after administration
Method: As increased cortical structural plasticity in the anterior parts of the brain mediates the sustained (>24 h) antidepressant-like effects of ketamine and play a role in the therapeutic effects of 5-HT2A agonists, the impact of the present compounds on forced swim test (FST) behavior is evaluated. First, a pretest is used to induce a depressive phenotype. Compounds are administered 24 h after the pre-test, and the FST is performed 24 h and 7 d post compound administration.
Male C57/BL6J mice (9-10 weeks old at time of experiment) are obtained. After 1 week in the vivarium each mouse is handled for approximately 1 minute by the experimenter for 3 consecutive days leading up to the first FST. All experiments are carried out by the same experimenter who performs handling. During the FST, mice undergo a 6 min swim session in a clear Plexiglas cylinder 40 cm tall, 20 cm in diameter, and filled with 30 cm of 24±1° C. water. […] Immobility scores for all mice are determined after the pre-test and mice are randomly assigned to treatment groups to generate groups with similar average immobility scores to be used for the following two FST sessions. […] Experiments are video-recorded and manually scored offline. Immobility time—defined as passive floating or remaining motionless with no activity other than that needed to keep the mouse's head above water—is scored for the last 4 min of the 6 min trial.

Structure (SMILES)	difference in half-life and intrinsic clearance compared with the non-deuterated methylone hydrochloride [1]	half-life at 1 μM [1]	microsomal CLint at 1 μM [1]	Oral Methylone Dose, Drug Activity Level Very Strong ([2]; oral, modified from WHO 2014)	effect of re-dose on duration of effects ([2]; re-dose of one-third to one-half the initial dose, WHO 2014)	immobility in forced swim test (C57/BL6J mice)
Cl.[2H]C1([2H])Oc2ccc(C(=O)C(C)NC)cc2O1 (racemic) [(rac)-Methylone-d2 hydrochloride, 1-(benzo[d][1,3]dioxol-5-yl-2,2-d2)-2-((methyl)amino)propan-1-one HCl]	demonstrated differences in half-life and intrinsic clearance	2.45 h	9.46 µL/min/mg			
Cl.[2H]C([2H])([2H])NC(C)C(=O)c1ccc2c(c1)OCO2 (racemic) [(rac)-Methylone-d3 hydrochloride, 1-(benzo[d][1,3]dioxol-5-yl)-2-((methyl-d3)amino)propan-1-one HCl]	demonstrated differences in half-life and intrinsic clearance	2.88 h	8.02 µL/min/mg			
Cl.[2H]C([2H])([2H])NC(C)C(=O)c1ccc2c(c1)OC([2H])([2H])O2 (racemic) [(rac)-Methylone-d5 hydrochloride, 1-(benzo[d][1,3]dioxol-5-yl-2,2-d2)-2-((methyl-d3)amino)propan-1-one HCl]	the most significant difference in half-life and intrinsic clearance	3.05 h	7.59 µL/min/mg			
Cl.[2H]C1([2H])Oc2ccc(C(=O)[C@@H](C)NC)cc2O1 [(R)-Methylone-d2 hydrochloride, (R)-1-(benzo[d][1,3]dioxol-5-yl-2,2-d2)-2-((methyl)amino)propan-1-one HCl]	demonstrated differences in half-life and intrinsic clearance	3.3 h	7 µL/min/mg			
Cl.[2H]C([2H])([2H])N[C@H](C)C(=O)c1ccc2c(c1)OCO2 [(R)-Methylone-d3 hydrochloride, (R)-1-(benzo[d][1,3]dioxol-5-yl)-2-((methyl-d3)amino)propan-1-one HCl]	demonstrated differences in half-life and intrinsic clearance	3.57 h	6.49 µL/min/mg			
Cl.[2H]C([2H])([2H])N[C@H](C)C(=O)c1ccc2c(c1)OC([2H])([2H])O2 [(R)-Methylone-d5 hydrochloride, (R)-1-(benzo[d][1,3]dioxol-5-yl-2,2-d2)-2-((methyl-d3)amino)propan-1-one hydrochloride]	the most significant difference in half-life and intrinsic clearance	3.68 h	6.27 µL/min/mg			
Cl.[2H]C1([2H])Oc2ccc(C(=O)[C@H](C)NC)cc2O1 [(S)-Methylone-d2 hydrochloride, (S)-1-(benzo[d][1,3]dioxol-5-yl-2,2-d2)-2-(methylamino)propan-1-one hydrochloride]	demonstrated differences in half-life and intrinsic clearance	2.45 h	9.41 µL/min/mg			
Cl.[2H]C([2H])([2H])N[C@@H](C)C(=O)c1ccc2c(c1)OCO2 [(S)-Methylone-d3 hydrochloride, (S)-1-(benzo[d][1,3]dioxol-5-yl)-2-((methyl-d3)amino)propan-1-one HCl]	demonstrated differences in half-life and intrinsic clearance	2.4 h	9.6 µL/min/mg			
Cl.[2H]C([2H])([2H])N[C@@H](C)C(=O)c1ccc2c(c1)OC([2H])([2H])O2 [(S)-Methylone-d5 hydrochloride, (S)-1-(benzo[d][1,3]dioxol-5-yl-2,2-d2)-2-((methyl-d3)amino)propan-1-one hydrochloride]	the most significant difference in half-life and intrinsic clearance	2.55 h	9.07 µL/min/mg			
CNC(C)C(=O)c1ccc2c(c1)OCO2 (stereo not drawn) [Methylone, 3,4-methylenedioxy-N-methylcathinone]				≥270 mg	prolongs duration for approximately one hour	
CNC1(c2ccccc2Cl)CCCCC1=O (stereo not drawn) [ketamine]						significantly reduced immobility
